Values of other authors in US10155751B2, “Pyrazolyl-substituted heteroaryls and their use as medicaments” (Boehringer Ingelheim International GmbH, priority 2015, dated 2018).

Experiments:
[1] = test system: platelet counts in patients with ITP; settings: Podolanczuk et al, Blood (2009); cited from earlier work
[2] = target: Aurora B (AURB) (Homo sapiens (Human), UniProt Q96GD4); settings: Thoma et al, Bioorganic & Medicinal Chemistry Letters (2015); cited from earlier work
Sequence of Aurora B (AURB) (Q96GD4 whole entry): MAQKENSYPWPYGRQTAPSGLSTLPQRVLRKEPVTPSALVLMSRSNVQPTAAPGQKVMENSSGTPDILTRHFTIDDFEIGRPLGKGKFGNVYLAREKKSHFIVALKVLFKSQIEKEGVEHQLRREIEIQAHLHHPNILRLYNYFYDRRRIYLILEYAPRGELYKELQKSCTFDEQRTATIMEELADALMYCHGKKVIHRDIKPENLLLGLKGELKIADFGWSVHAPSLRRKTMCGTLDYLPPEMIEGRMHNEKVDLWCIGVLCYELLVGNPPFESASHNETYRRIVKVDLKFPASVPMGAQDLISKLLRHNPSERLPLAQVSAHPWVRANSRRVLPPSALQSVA

For `COc1cc(Nc2ncc(F)c(Nc3ccc4c(n3)N(COP(=O)(O)O)C(=O)C(C)(C)O4)n2)cc(OC)c1OC` [Example R788], the platelet counts [1] is listed as “improved platelet counts”.

For `C[C@@H](Oc1cc(-c2cnn(C3CC3)c2)cc2nn(C)c(F)c12)[C@H]1CNC(=O)C1` [compound No. 5], the “inhibition of Aurora B (AURB)” value [2] is given as “inhibited Aurora B”.
